Results published in ChEMBL document CHEMBL1201862, “PubChem BioAssay data set” (2004).
Calls of active or inactive are those of the source.

Experiments:
Cannabinoid receptor 2 [1] = target: T1, Cannabinoid receptor 2 (Homo sapiens, UniProt P34972); assay: SAR analysis of agonists of the Cannabinoid Receptor 2 using an Image-Based Assay - Set 3. [Related pubchem assays (depositor defined):AID2013, AID2026]; type: functional
Cannabinoid receptor 1 [2] = target: T2, Cannabinoid receptor 1 (Homo sapiens, UniProt P21554); assay: SAR analysis of antagonists of the Cannabinoid Receptor 1 using an Image-Based Assay - Set 4. [Related pubchem assays (depositor defined):AID2013, AID2026]; type: functional
[3] = target: T3, G-protein coupled receptor 35 (Homo sapiens, UniProt Q9HC97); assay: SAR analysis of Antagonists of the GPR35 Receptor using an Image-Based Assay - Set 6. [Related pubchem assays (depositor defined):AID2013, AID2026]; type: functional
Cannabinoid receptor 2 [4] = target: T1, Cannabinoid receptor 2; assay: SAR analysis of antagonists of the Cannabinoid Receptor 2 using an Image-Based Assay - Set 3. [Related pubchem assays (depositor defined):AID2013, AID2026]; type: functional
[5] = target: T3, G-protein coupled receptor 35; assay: SAR analysis of Agonists of the GPR35 Receptor using an Image-Based Assay - Set 4. [Related pubchem assays (depositor defined):AID2013, AID2026]; type: functional
Cannabinoid receptor 1 [6] = target: T2, Cannabinoid receptor 1; assay: SAR analysis of agonists of the Cannabinoid Receptor 1 using an Image-Based Assay - Set 4. [Related pubchem assays (depositor defined):AID2013, AID2026]; type: functional
[7] = target: T4, G-protein coupled receptor 55 (Homo sapiens, UniProt Q9Y2T6); assay: SAR Analysis of Selective Antagonists of GPR55 using an Image-Based Assay - Set 4. [Related pubchem assays (depositor defined):AID2013, AID2026]; type: functional
[8] = target: T5, Tyrosine-protein phosphatase non-receptor type 7 (Homo sapiens, UniProt P35236); assay: HTS HePTP Fluorescent Assay using OMFP substrate for In Vitro dose response studies. [Related pubchem assays (depositor defined):AID1059, AID1077, AID1784, AID2068, AID2085, AID435032, AID521]; type: functional
T5 sequence (P35236 whole entry): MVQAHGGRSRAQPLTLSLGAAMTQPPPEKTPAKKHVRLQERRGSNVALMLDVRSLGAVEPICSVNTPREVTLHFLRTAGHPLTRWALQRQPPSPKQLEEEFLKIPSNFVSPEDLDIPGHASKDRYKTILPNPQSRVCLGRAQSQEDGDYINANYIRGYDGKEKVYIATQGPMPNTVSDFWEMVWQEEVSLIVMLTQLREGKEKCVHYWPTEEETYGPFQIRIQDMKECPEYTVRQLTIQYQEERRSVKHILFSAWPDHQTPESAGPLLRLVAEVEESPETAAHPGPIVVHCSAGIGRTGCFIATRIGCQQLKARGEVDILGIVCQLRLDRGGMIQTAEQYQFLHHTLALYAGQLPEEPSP

[9] = target: T6, Tyrosine-protein phosphatase non-receptor type 22 (Homo sapiens, UniProt Q9Y2R2); type: functional
T6 sequence (Q9Y2R2 whole entry): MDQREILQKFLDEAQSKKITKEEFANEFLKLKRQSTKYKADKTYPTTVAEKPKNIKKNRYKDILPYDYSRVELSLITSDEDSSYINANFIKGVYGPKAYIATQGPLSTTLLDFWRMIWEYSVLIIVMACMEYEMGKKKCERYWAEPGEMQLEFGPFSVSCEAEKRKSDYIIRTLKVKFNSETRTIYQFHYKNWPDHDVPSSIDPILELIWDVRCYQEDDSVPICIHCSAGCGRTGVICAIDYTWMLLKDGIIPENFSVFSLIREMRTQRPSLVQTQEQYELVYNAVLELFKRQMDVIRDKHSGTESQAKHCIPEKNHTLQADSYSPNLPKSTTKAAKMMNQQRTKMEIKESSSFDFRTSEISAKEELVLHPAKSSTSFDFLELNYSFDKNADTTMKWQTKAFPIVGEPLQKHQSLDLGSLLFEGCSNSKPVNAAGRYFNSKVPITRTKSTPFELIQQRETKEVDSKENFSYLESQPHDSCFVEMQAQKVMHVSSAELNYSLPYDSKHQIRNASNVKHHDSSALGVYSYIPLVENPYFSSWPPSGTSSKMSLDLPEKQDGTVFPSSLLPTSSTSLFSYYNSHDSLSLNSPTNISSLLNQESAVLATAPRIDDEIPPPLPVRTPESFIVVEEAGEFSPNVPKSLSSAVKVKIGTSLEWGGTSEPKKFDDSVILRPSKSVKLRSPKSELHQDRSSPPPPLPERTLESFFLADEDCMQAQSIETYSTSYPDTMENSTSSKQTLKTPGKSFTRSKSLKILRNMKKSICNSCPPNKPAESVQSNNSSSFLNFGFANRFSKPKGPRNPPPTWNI

[10] = target: T6, Tyrosine-protein phosphatase non-receptor type 22; assay: PTPN22 lymphoid phosphatase activity blockers – biochemical, fluorescence intensity, uHTS (AID 1779)
[11] = target: T5, Tyrosine-protein phosphatase non-receptor type 7; type: functional
[12] = target: T6, Tyrosine-protein phosphatase non-receptor type 22; type: functional; remark: listed apart in the source
[13] = target: T6, Tyrosine-protein phosphatase non-receptor type 22; assay: LYP1 Fluorescent Assay using OMFP substrate for In Vitro dose response studies. [Related pubchem assays (depositor defined):AID1779, AID1784, AID435024]
[14] = toxicity toward cultured mammalian cells – cell-based, plate reader, cherry-pick samples, cytotoxicity control, dose response (AID 504397); type: functional
[15] = viability of uninfected HEp-2 cells – cell-based, HTS, cytotoxicity control for RSV inhibitor project, dose response (AID 2410); type: functional; conditions: human respiratory syncytial virus
HeLa = assay: ATP-based viability loss in HeLa cells – cell-based, CellTiter-Glo luminescence, cherry-pick samples, cytotoxicity control for MITF activator project, dose response (AID 540259); type: functional; conditions: Homo sapiens
[16] = target: Sphingosine 1-phosphate receptor 4 (Homo sapiens, UniProt O95977); assay: Fluorescence dose response cell-based high throughput screening assay for agonists of the Sphingosine 1-Phosphate Receptor 4 (S1P4). [Related pubchem assays: 1509 (Primary screen.), 1523 (Confirmation screen in triplicates.)]; type: functional
[17] = target: Sphingosine 1-phosphate receptor 1 (Homo sapiens, UniProt P21453); assay: Fluorescence-based counterscreen assay for S1P4 agonists: Cell-based dose response high throughput screening assay to identify agonists of the Sphingosine 1-Phosphate Receptor 1 (S1P1). [Related pubchem assays (depositor defined):AID1509, AID1523, AID1801, AID463107, AID463118, AID463119, AID463122, AID463123, AID463129, AID463225, AID504400, AID504460]; type: functional
[18] = target: T3, G-protein coupled receptor 35; assay: SAR analysis of Antagonists of the GPR35 Receptor using an Image-Based Assay - Set 3. [Related pubchem assays (depositor defined):AID2013, AID2026]; type: functional
[19] = target: T3, G-protein coupled receptor 35; assay: SAR analysis of Agonists of the GPR35 Receptor using an Image-Based Assay - Set 2. [Related pubchem assays (depositor defined):AID2013, AID2026]; type: functional
Cannabinoid receptor 2 [20] = target: T1, Cannabinoid receptor 2; assay: SAR analysis of agonists of the Cannabinoid Receptor 2 using an Image-Based Assay. [Related pubchem assays (depositor defined):AID2013, AID2026]; type: functional
Cannabinoid receptor 2 [21] = target: T1, Cannabinoid receptor 2; assay: SAR analysis of antagonists of the Cannabinoid Receptor 2 using an Image-Based Assay. [Related pubchem assays (depositor defined):AID2013, AID2026]; type: functional
Cannabinoid receptor 1 [22] = target: T2, Cannabinoid receptor 1; assay: SAR analysis of antagonists of the Cannabinoid Receptor 1 using an Image-Based Assay - Set 2. [Related pubchem assays (depositor defined):AID2013, AID2026]; type: functional
[23] = target: T4, G-protein coupled receptor 55; assay: inhibition of LPI-stimulated GPR55 beta-arrestin translocation – imaging, U2OS, beta-arrestin-GFP, LPI agonist, primary screen (AID 2013); type: functional;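 also: antagonist potency measured as reduced agonist-driven arrestin aggregation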
Cannabinoid receptor 1 [24] = target: T2, Cannabinoid receptor 1; assay: SAR analysis of agonists of the Cannabinoid Receptor 1 using an Image-Based Assay - Set 2. [Related pubchem assays (depositor defined):AID2013, AID2026]; type: functional
[25] = target: T4, G-protein coupled receptor 55; assay: blockade of LPI-induced GPR55 arrestin translocation – imaging, U2OS, beta-arrestin-GFP, LPI agonist, set 2, SAR follow-up (AID 2820); type: functional
[26] = target: Kappa-type opioid receptor (Homo sapiens, UniProt P41145); assay: SAR analysis of small molecule agonists of the kappa opioid receptor via a luminescent beta-arrestin assay - Set 3. [Related pubchem assays (depositor defined):AID1777, AID1785, AID1786, AID1966, AID2133, AID2136, AID2284, AID2500]; type: functional
Sequence of Kappa-type opioid receptor (P41145 whole entry): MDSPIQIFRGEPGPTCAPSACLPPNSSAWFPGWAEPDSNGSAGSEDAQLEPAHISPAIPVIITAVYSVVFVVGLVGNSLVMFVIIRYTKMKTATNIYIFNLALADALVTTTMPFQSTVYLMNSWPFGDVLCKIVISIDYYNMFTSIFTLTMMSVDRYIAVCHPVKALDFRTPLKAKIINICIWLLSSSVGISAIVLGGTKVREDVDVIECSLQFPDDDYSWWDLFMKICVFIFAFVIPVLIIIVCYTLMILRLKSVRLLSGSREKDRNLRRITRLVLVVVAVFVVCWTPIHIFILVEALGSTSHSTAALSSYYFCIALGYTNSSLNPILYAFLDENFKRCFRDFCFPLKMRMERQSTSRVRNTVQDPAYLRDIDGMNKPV

T4 sequence (Q9Y2T6 whole entry): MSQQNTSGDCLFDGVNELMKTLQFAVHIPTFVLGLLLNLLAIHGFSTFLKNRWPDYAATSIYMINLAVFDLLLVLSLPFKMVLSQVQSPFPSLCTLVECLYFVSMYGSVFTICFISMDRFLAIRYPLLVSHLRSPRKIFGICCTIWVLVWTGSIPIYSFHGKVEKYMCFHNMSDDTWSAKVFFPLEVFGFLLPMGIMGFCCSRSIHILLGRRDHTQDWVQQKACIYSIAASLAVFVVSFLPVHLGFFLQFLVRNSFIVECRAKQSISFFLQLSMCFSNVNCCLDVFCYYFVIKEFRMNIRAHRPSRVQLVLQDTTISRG
T3 sequence (Q9HC97 whole entry): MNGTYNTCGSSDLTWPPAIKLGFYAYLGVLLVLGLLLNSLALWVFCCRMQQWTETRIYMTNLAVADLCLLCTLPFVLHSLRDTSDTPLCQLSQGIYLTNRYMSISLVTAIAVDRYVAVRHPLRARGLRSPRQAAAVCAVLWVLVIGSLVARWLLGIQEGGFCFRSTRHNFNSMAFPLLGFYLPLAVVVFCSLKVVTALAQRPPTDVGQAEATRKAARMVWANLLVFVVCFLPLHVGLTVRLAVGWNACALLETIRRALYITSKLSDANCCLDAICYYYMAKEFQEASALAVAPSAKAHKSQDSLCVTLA
T1 sequence (P34972 whole entry): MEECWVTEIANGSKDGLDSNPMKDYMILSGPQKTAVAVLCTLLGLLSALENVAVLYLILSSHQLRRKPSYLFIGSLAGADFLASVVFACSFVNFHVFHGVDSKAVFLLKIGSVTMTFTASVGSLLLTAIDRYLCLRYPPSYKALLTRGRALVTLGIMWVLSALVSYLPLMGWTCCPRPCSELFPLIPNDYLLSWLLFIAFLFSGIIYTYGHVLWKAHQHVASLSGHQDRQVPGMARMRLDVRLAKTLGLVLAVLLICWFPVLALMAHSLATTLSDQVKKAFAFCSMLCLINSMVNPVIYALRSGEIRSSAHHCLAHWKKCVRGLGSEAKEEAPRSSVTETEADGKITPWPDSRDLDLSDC
T2 sequence (P21554 whole entry): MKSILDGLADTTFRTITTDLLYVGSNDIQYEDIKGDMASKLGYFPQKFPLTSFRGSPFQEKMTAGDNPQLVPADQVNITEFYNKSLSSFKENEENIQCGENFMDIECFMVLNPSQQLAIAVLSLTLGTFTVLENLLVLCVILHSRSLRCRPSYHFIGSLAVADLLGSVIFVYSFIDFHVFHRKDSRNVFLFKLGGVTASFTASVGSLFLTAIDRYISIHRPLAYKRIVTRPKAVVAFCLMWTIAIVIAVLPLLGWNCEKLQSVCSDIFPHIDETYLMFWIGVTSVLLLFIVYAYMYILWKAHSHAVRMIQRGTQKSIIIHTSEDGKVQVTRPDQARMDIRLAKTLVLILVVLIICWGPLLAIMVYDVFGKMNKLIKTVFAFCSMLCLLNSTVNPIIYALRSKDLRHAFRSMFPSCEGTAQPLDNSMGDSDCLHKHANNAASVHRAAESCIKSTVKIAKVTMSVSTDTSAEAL
Sequence of Sphingosine 1-phosphate receptor 1 (P21453 whole entry): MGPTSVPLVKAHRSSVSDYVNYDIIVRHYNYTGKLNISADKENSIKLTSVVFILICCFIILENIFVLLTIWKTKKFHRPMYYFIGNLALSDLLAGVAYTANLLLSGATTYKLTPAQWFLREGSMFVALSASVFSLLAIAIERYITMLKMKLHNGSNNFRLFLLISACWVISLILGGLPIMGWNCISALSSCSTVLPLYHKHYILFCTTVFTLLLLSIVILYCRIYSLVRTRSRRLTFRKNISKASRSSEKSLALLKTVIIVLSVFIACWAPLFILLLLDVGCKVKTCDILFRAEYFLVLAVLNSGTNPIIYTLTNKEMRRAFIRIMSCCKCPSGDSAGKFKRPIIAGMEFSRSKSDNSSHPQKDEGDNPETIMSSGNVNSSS
Sequence of Sphingosine 1-phosphate receptor 4 (O95977 whole entry): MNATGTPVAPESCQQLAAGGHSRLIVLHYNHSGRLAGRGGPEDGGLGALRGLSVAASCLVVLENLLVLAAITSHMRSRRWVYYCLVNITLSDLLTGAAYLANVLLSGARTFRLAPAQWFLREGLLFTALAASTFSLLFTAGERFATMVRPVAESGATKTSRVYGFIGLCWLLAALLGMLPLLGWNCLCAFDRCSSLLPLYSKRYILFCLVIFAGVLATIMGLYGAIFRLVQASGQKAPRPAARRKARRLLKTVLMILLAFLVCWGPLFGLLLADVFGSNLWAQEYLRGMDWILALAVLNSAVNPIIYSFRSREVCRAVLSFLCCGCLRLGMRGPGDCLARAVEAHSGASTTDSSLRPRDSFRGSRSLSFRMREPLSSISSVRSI

Which results are given for `CCOc1ccc(-c2n[nH]c(C)c2-c2ccccc2)c(O)c1`?
EC50 (Cannabinoid receptor 2 [1]): > 32 µM (inactive); IC50 (Cannabinoid receptor 1 [2]): 4.14 µM (active); IC50 [3]: > 32 µM (inactive); IC50 (Cannabinoid receptor 2 [4]): 23.8 µM (inactive); EC50 [5]: > 32 µM (inactive); EC50 (Cannabinoid receptor 1 [6]): > 32 µM (inactive); IC50 [7]: 18.4 µM (inactive)

Which results are given for `O=C(N/N=C/c1ccc2c(c1)OCO2)c1cc(-c2ccncc2)nc2ccccc12`?
IC50 [8]: > 99 µM (inactive); IC50 [9]: > 79.4 µM (inactive); IC50 [10]: > 99 µM (inactive); IC50 [11]: > 79.4 µM (inactive); IC50 [12]: > 79.4 µM (inactive); IC50 [13]: > 99 µM (inactive)

With `COc1cccc2sc3ccc(C#CC4(O)CCCCC4)cc3c(=O)c12` as the molecule, how does the AC50 [14] read?
The AC50 was 85.7 µM (active).

What about the CC50 [15] of the same molecule?
Its CC50 is 13.9 µM (active).

What about the AC50 (HeLa) of the same molecule?
Its AC50 is 39.6 µM (active).

What does the source list for `Cn1c(-c2cc3ccc(OC(=O)C(C)(C)C)cc3oc2=O)nc2ccccc21`?
EC50 [16]: 37 µM (not active); EC50 [17]: 33.5 µM (inactive)

With `COC(=O)C1=C(N)c2ccccc2C1(C#N)c1ccccc1` (configuration not stated) as the molecule, how does the IC50 [18] read?
Its IC50 is > 32 µM (inactive).

What about the EC50 [19] of the same molecule?
Its EC50 is > 32 µM (inactive).

And the EC50 (Cannabinoid receptor 2 [20])?
Its EC50 is > 32 µM (inactive).

What about the IC50 (Cannabinoid receptor 2 [21]) of the same molecule?
Its IC50 is > 32 µM (inactive).

What about the IC50 (Cannabinoid receptor 1 [22]) of the same molecule?
Its IC50 is > 32 µM (inactive).

And the IC50 [23]?
The IC50 was 1.76 µM (active).

What about the EC50 (Cannabinoid receptor 1 [24]) of the same molecule?
The EC50 was > 32 µM (inactive).

What about the IC50 [25] of the same molecule?
Its IC50 is 2.36 µM (active).

With `FC(F)(F)c1cc(CSc2nnc(-c3ccc(Br)cc3)n2Cc2ccco2)ccc1Cl` as the molecule, how does the EC50 [26] read?
Its EC50 is 11 µM (inactive).
